Laboratory results: US12214092B2, “Systems and methods for treating biological fluids” (Cerus Corporation, priority 2017, dated 2025)

What was measured:
platelets = test: Platelet quality, platelets in 100% plasma, amotosalen 30-110 μM, 340 nm device ~7.2 J/cm^2
Method: Multiple donor platelet units in 10000 plasma (5 units, ˜278-391 mL) were pooled and split into 5 units of ˜285 mL each, to be used as an untreated control, or treated with amotosalen at different concentrations, with ultraviolet A illumination using the 340 nm device. Amotosalen was added to a concentration of 30, 60, 90 or 110 μM, then pre-illumination (pre-UV) samples were removed for analysis, and the remainder of the units subjected to illumination at ˜7.2 J/cm^2. Post-illumination (Post-UV) samples were then removed for post-treatment analysis.

[1] = S-59 photoconversion in apheresis platelets in 100% plasma, 15 μM S-59, HPLC; type: physicochemical
Text: Additional units were illuminated with the INT-100 device at ˜3.6 J/cm^2 for comparison or maintained as an untreated control.

## Cc1oc2c(C)c3oc(=O)cc(C)c3cc2c1COCCN [S-59, 3-(2-aminoethoxymethyl)-2,5,9-trimethylfuro[3,2-g]chromen-7-one]
platelets; 30 μM, D3
  Glucose: 14.9 mmol/L
  LDH: 14.5 LDH IU/10^11 platelets
  Lactate: 6.9 mmol/L
  Platelet counts: 1155 x10^3 cells/μL
  Platelet lysis: 5.22%
  pCO2 at 37° C.: 38.1 mm Hg
  pH at 22° C.: 7.43
  pH at 37° C.: 7.21
  pO2 at 37° C.: 74.6 mm Hg
platelets; 30 μM, D7
  Glucose: 11.9 mmol/L
  LDH: 17.4 LDH IU/10^11 platelets
  Lactate: 12.1 mmol/L
  Platelet counts: 1155 x10^3 cells/μL
  Platelet lysis: 6.10%
  pCO2 at 37° C.: 31.2 mm Hg
  pH at 22° C.: 7.32
  pH at 37° C.: 7.10
  pO2 at 37° C.: 78.5 mm Hg
platelets; 30 μM, Post-UV
  Glucose: 15.9 mmol/L
  LDH: 15.0 LDH IU/10^11 platelets
  Lactate: 5.7 mmol/L
  Platelet counts: 1115 x10^3 cells/μL
  Platelet lysis: 5.31%
  pCO2 at 37° C.: 50.2 mm Hg
  pH at 22° C.: 7.37
  pH at 37° C.: 7.15
  pO2 at 37° C.: 13.9 mm Hg
platelets; 30 μM, Pre-UV
  Glucose: 16.0 mmol/L
  LDH: 13.7 LDH IU/10^11 platelets
  Lactate: 5.4 mmol/L
  Platelet counts: 1200 x10^3 cells/μL
  Platelet lysis: 4.92%
  pCO2 at 37° C.: 52.4 mm Hg
  pH at 22° C.: 7.36
  pH at 37° C.: 7.14
  pO2 at 37° C.: 28.6 mm Hg
platelets; 60 μM, D3
  Glucose: 15.0 mmol/L
  LDH: 13.9 LDH IU/10^11 platelets
  Lactate: 6.8 mmol/L
  Platelet counts: 1152 x10^3 cells/μL
  Platelet lysis: 5.15%
  pCO2 at 37° C.: 38.1 mm Hg
  pH at 22° C.: 7.43
  pH at 37° C.: 7.20
  pO2 at 37° C.: 65.8 mm Hg
platelets; 60 μM, D7
  Glucose: 11.6 mmol/L
  LDH: 36.5 LDH IU/10^11 platelets
  Lactate: 11.8 mmol/L
  Platelet counts: 1041 x10^3 cells/μL
  Platelet lysis: 11.82%
  pCO2 at 37° C.: 31.2 mm Hg
  pH at 22° C.: 7.32
  pH at 37° C.: 7.09
  pO2 at 37° C.: 78.0 mm Hg
platelets; 60 μM, Post-UV
  Glucose: 15.9 mmol/L
  LDH: 14.3 LDH IU/10^11 platelets
  Lactate: 5.6 mmol/L
  Platelet counts: 1117 x10^3 cells/μL
  Platelet lysis: 5.10%
  pCO2 at 37° C.: 49.2 mm Hg
  pH at 22° C.: 7.37
  pH at 37° C.: 7.15
  pO2 at 37° C.: 20.4 mm Hg
platelets; 60 μM, Pre-UV
  Glucose: 16.2 mmol/L
  LDH: 13.6 LDH IU/10^11 platelets
  Lactate: 5.4 mmol/L
  Platelet counts: 1160 x10^3 cells/μL
  Platelet lysis: 4.71%
  pCO2 at 37° C.: 52.4 mm Hg
  pH at 22° C.: 7.36
  pH at 37° C.: 7.14
  pO2 at 37° C.: 32.7 mm Hg
platelets; 90 μM, D3
  Glucose: 14.9 mmol/L
  Lactate: 7.3 mmol/L
  Platelet counts: 1157 x10^3 cells/μL
  Platelet lysis: 4.88%
  pCO2 at 37° C.: 40.3 mm Hg
  pH at 22° C.: 7.39
  pH at 37° C.: 7.17
  pO2 at 37° C.: 82.2 mm Hg
platelets; 90 μM, D7
  Glucose: 10.6 mmol/L
  Lactate: 13.6 mmol/L
  Platelet counts: 1199 x10^3 cells/μL
  Platelet lysis: 5.42%
  pCO2 at 37° C.: 33.5 mm Hg
  pH at 22° C.: 7.23
  pH at 37° C.: 7.00
  pO2 at 37° C.: 87.9 mm Hg
platelets; 90 μM, Post-UV
  Glucose: 15.9 mmol/L
  Lactate: 5.7 mmol/L
  Platelet counts: 1115 x10^3 cells/μL
  Platelet lysis: 5.13%
  pCO2 at 37° C.: 48.5 mm Hg
  pH at 22° C.: 7.37
  pH at 37° C.: 7.15
  pO2 at 37° C.: 24.1 mm Hg
platelets; 90 μM, Pre-UV
  Glucose: 15.9 mmol/L
  Lactate: 5.3 mmol/L
  Platelet counts: 1165 x10^3 cells/μL
  Platelet lysis: 4.97%
  pCO2 at 37° C.: 50.8 mm Hg
  pH at 22° C.: 7.37
  pH at 37° C.: 7.14
  pO2 at 37° C.: 54.6 mm Hg
platelets; 110 μM, D3
  Glucose: 14.7 mmol/L
  LDH: 17.0 LDH IU/10^11 platelets
  Lactate: 7.3 mmol/L
  Platelet counts: 1103 x10^3 cells/μL
  Platelet lysis: 5.90%
  pCO2 at 37° C.: 38.6 mm Hg
  pH at 22° C.: 7.40
  pH at 37° C.: 7.18
  pO2 at 37° C.: 69.9 mm Hg
platelets; 110 μM, D7
  Glucose: 10.4 mmol/L
  LDH: 16.0 LDH IU/10^11 platelets
  Lactate: 13.8 mmol/L
  Platelet counts: 1153 x10^3 cells/μL
  Platelet lysis: 6.13%
  pCO2 at 37° C.: 31.7 mm Hg
  pH at 22° C.: 7.24
  pH at 37° C.: 7.01
  pO2 at 37° C.: 90.5 mm Hg
platelets; 110 μM, Post-UV
  Glucose: 16.0 mmol/L
  LDH: 12.0 LDH IU/10^11 platelets
  Lactate: 5.4 mmol/L
  Platelet counts: 1239 x10^3 cells/μL
  Platelet lysis: 4.63%
  pCO2 at 37° C.: 48.1 mm Hg
  pH at 22° C.: 7.37
  pH at 37° C.: 7.14
  pO2 at 37° C.: 189.7 mm Hg
platelets; 110 μM, Pre-UV
  Glucose: 15.9 mmol/L
  LDH: 12.4 LDH IU/10^11 platelets
  Lactate: 5.3 mmol/L
  Platelet counts: 1209 x10^3 cells/μL
  Platelet lysis: 4.61%
  pCO2 at 37° C.: 51.8 mm Hg
  pH at 22° C.: 7.36
  pH at 37° C.: 7.13
  pO2 at 37° C.: 88.6 mm Hg
[1]; 340 nm LED 1× (~3.6 J/cm^2), <LOQ
  S-59 concentration post-illumination: 0.86 µM
[1]; 340 nm LED 2× (~7.2 J/cm^2), <LOQ
  S-59 concentration post-illumination: 0.19 µM
[1]; 340 nm LED 3× (~10.8 J/cm^2), <LOQ
  S-59 concentration post-illumination: 0.00 µM
[1]; INT-100, ~3.6 J/cm^2
  S-59 concentration post-illumination: 4.11 µM
